Here are results for 119 test systems from the supplement of paper PMC12513837.

Compound in this assay: CC(=O)N1CCc2c(c(N3CCCc4cc(-c5cnn(C)c5)c(C(F)F)cc43)nn2C2CCC(CN3CCN(c4ccc5c(c4)C(=O)N(C4CCC(=O)NC4=O)C5=O)CC3)CC2)C1 [CBPD-409]
The experiment in a line: AUC of viability dose-response curve (relative to vehicle, 8 doses up to 10 µM) (fraction); higher = less sensitive (more viable); extreme values may be limits of the assay. As for the experimental part: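 PRISM multiplexed pooled barcoded cell line viability screen at the Broad Institute, 887 cancer cell lines treated with CBPD-409 (p300/CBP PROTAC degrader) at 8 concentrations in threefold dilution, top dose 10 µM. The read-out is the area under the dose-response curve of relative viability versus vehicle (n=3). AUC < 0.3 is called strongly sensitive and AUC > 0.8 resistant.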

± gives the standard deviation of the averaged measurements.

As to CFPAC1_PANCREAS, the “AUC of viability dose-response curve” value was 1.

For the test system KMBC2_URINARY_TRACT, the “AUC of viability dose-response curve” value was found to be 0.841.

Consider CHLA57_BONE, for which the “AUC of viability dose-response curve” value was 0.647.

For KKU100_BILIARY_TRACT, the “AUC of viability dose-response curve” value was 0.994.

Turning to K029AX_SKIN, the “AUC of viability dose-response curve” value came to 0.793.

Consider NCO2_HAEMATOPOIETIC_AND_LYMPHOID_TISSUE, for which the “AUC of viability dose-response curve” value is 0.243.

On to HDQP1_BREAST, for which the “AUC of viability dose-response curve” value worked out at 0.853.

In the case of SNU668_STOMACH, the “AUC of viability dose-response curve” value was 0.999.

In the case of MHHNB11_AUTONOMIC_GANGLIA, the “AUC of viability dose-response curve” value came out at 0.488.

For the test system SNU216_STOMACH, the “AUC of viability dose-response curve” value stood at 1.

For KYSE450_OESOPHAGUS, the “AUC of viability dose-response curve” value stood at 0.761.

“NALM6_HAEMATOPOIETIC_AND_LYMPHOID_TISSUE”: the “AUC of viability dose-response curve” value came out at 0.331.

Consider SF295_CENTRAL_NERVOUS_SYSTEM, for which the “AUC of viability dose-response curve” value was found to be 0.833.

With VMRCRCW_KIDNEY, the “AUC of viability dose-response curve” value was 0.631.

Turning to BICR22_UPPER_AERODIGESTIVE_TRACT, the “AUC of viability dose-response curve” value is 0.901.

Consider OSC20_UPPER_AERODIGESTIVE_TRACT, for which the “AUC of viability dose-response curve” value is 0.936.

For the test system CL11_LARGE_INTESTINE, the “AUC of viability dose-response curve” value worked out at 0.326.

Take UO31_KIDNEY: the “AUC of viability dose-response curve” value came to 1.

In the case of RH4_SOFT_TISSUE, the “AUC of viability dose-response curve” value was found to be 0.308.

Consider SW1353_BONE, for which the “AUC of viability dose-response curve” value was found to be 1.

Consider HUH6_LIVER, for which the “AUC of viability dose-response curve” value was determined as 1.

Consider YD10B_UPPER_AERODIGESTIVE_TRACT, for which the “AUC of viability dose-response curve” value was 1.

Turning to HCC1195_LUNG, the “AUC of viability dose-response curve” value worked out at 1.

On to NCIH2196_LUNG, for which the “AUC of viability dose-response curve” value was 1.

Regarding HOTHC_THYROID, the “AUC of viability dose-response curve” value came to 0.845.

As to NCIH1435_LUNG, the “AUC of viability dose-response curve” value was determined as 1.

With “HS611T_HAEMATOPOIETIC_AND_LYMPHOID_TISSUE”, the “AUC of viability dose-response curve” value was determined as 0.742.

As to “SKNO1_HAEMATOPOIETIC_AND_LYMPHOID_TISSUE”, the “AUC of viability dose-response curve” value was determined as 0.247.

Regarding TCCSUP_URINARY_TRACT, the “AUC of viability dose-response curve” value was 1.

For the test system G361_SKIN, the “AUC of viability dose-response curve” value worked out at 0.186.

For VAESBJ_SOFT_TISSUE, the “AUC of viability dose-response curve” value came to 0.8.

In the case of RERFLCAD1_LUNG, the “AUC of viability dose-response curve” value came out at 1.

In the case of G415_BILIARY_TRACT, the “AUC of viability dose-response curve” value amounted to 0.902.

RKN_SOFT_TISSUE: the “AUC of viability dose-response curve” value worked out at 1.

For the test system SNU869_BILIARY_TRACT, the “AUC of viability dose-response curve” value is 1.

In the case of HUO9_BONE, the “AUC of viability dose-response curve” value amounted to 0.679.

For OVISE_OVARY, the “AUC of viability dose-response curve” value was 1.

Turning to PK1_PANCREAS, the “AUC of viability dose-response curve” value was 0.685.

Consider ULA_HAEMATOPOIETIC_AND_LYMPHOID_TISSUE, for which the “AUC of viability dose-response curve” value came out at 0.813.

Take FTC133_THYROID: the “AUC of viability dose-response curve” value turned out to be 0.549.

As for T3M10_LUNG, the “AUC of viability dose-response curve” value was determined as 0.64.

With NCIH2052_PLEURA, the “AUC of viability dose-response curve” value worked out at 0.444.

Turning to EMTOKA_ENDOMETRIUM, the “AUC of viability dose-response curve” value is 0.825.

For the test system MCF7_BREAST, the “AUC of viability dose-response curve” value was found to be 0.701.

As to DETROIT562_UPPER_AERODIGESTIVE_TRACT, the “AUC of viability dose-response curve” value is 0.68.

As to PK45H_PANCREAS, the “AUC of viability dose-response curve” value is 1.

As to SJSA1_BONE, the “AUC of viability dose-response curve” value came out at 0.673 ± 0.46.

Take OE19_OESOPHAGUS: the “AUC of viability dose-response curve” value came out at 0.884.

On to OCUG1_BILIARY_TRACT, for which the “AUC of viability dose-response curve” value turned out to be 1.

Consider TGBC1TKB_BILIARY_TRACT, for which the “AUC of viability dose-response curve” value was 1.

For “PF382_HAEMATOPOIETIC_AND_LYMPHOID_TISSUE”, the “AUC of viability dose-response curve” value worked out at 0.566.

In the case of CCFSTTG1_CENTRAL_NERVOUS_SYSTEM, the “AUC of viability dose-response curve” value came to 0.992.

In the case of “KMS27_HAEMATOPOIETIC_AND_LYMPHOID_TISSUE”, the “AUC of viability dose-response curve” value stood at 0.801.

Take NP2_CENTRAL_NERVOUS_SYSTEM: the “AUC of viability dose-response curve” value was 0.868.

For the test system “MONOMAC1_HAEMATOPOIETIC_AND_LYMPHOID_TISSUE”, the “AUC of viability dose-response curve” value was determined as 1.

With HCC78_LUNG, the “AUC of viability dose-response curve” value stood at 0.807.

Regarding SW156_KIDNEY, the “AUC of viability dose-response curve” value was determined as 0.884.

CORL23_LUNG: the “AUC of viability dose-response curve” value was 1.

Take SKMEL30_SKIN: the “AUC of viability dose-response curve” value came out at 0.703.

Turning to U343_CENTRAL_NERVOUS_SYSTEM, the “AUC of viability dose-response curve” value stood at 1.

Take EKVX_LUNG: the “AUC of viability dose-response curve” value amounted to 1.

Consider OE33_OESOPHAGUS, for which the “AUC of viability dose-response curve” value came out at 0.776.

As for PEDS005TSUSP_KIDNEY, the “AUC of viability dose-response curve” value came out at 0.309.

For SNU466_CENTRAL_NERVOUS_SYSTEM, the “AUC of viability dose-response curve” value was 0.909.

With SNU182_LIVER, the “AUC of viability dose-response curve” value was 0.274.

In the case of CAL72_BONE, the “AUC of viability dose-response curve” value came to 0.839.

In the case of HCA1_CERVIX, the “AUC of viability dose-response curve” value was found to be 0.811.

For RL952_ENDOMETRIUM, the “AUC of viability dose-response curve” value was found to be 0.996.

Turning to QGP1_PANCREAS, the “AUC of viability dose-response curve” value was 0.661.

For the test system CORL105_LUNG, the “AUC of viability dose-response curve” value was 0.747.

Turning to NB4_HAEMATOPOIETIC_AND_LYMPHOID_TISSUE, the “AUC of viability dose-response curve” value was determined as 0.277.

As for EB1_HAEMATOPOIETIC_AND_LYMPHOID_TISSUE, the “AUC of viability dose-response curve” value is 1.

With SW1271_LUNG, the “AUC of viability dose-response curve” value stood at 0.564.

On to “RCHACV_HAEMATOPOIETIC_AND_LYMPHOID_TISSUE”, for which the “AUC of viability dose-response curve” value is 0.298.

Regarding 8505C_THYROID, the “AUC of viability dose-response curve” value was found to be 0.943.

With “NUDHL1_HAEMATOPOIETIC_AND_LYMPHOID_TISSUE”, the “AUC of viability dose-response curve” value came out at 0.67.

ACCMESO1_PLEURA: the “AUC of viability dose-response curve” value was determined as 1.

RT112_URINARY_TRACT: the “AUC of viability dose-response curve” value amounted to 0.83.

For GCT27_TESTIS, the “AUC of viability dose-response curve” value was determined as 0.696.

For the test system BICR78_UPPER_AERODIGESTIVE_TRACT, the “AUC of viability dose-response curve” value was found to be 0.547.

For LOUNH91_LUNG, the “AUC of viability dose-response curve” value worked out at 0.731.

As to COLO679_SKIN, the “AUC of viability dose-response curve” value was 0.3.

NCIH358_LUNG: the “AUC of viability dose-response curve” value turned out to be 1.

Consider MKN45_STOMACH, for which the “AUC of viability dose-response curve” value was determined as 0.238.

Turning to ONS76_CENTRAL_NERVOUS_SYSTEM, the “AUC of viability dose-response curve” value is 0.922 ± 0.11.

As for 95T1000_SOFT_TISSUE, the “AUC of viability dose-response curve” value stood at 0.44.

2313287_STOMACH: the “AUC of viability dose-response curve” value was found to be 0.631.

As for SKGI_ENDOMETRIUM, the “AUC of viability dose-response curve” value stood at 1.

Turning to HCC1438_LUNG, the “AUC of viability dose-response curve” value turned out to be 0.893.

As to HCC1419_BREAST, the “AUC of viability dose-response curve” value was determined as 0.122.

On to PECAPJ49_UPPER_AERODIGESTIVE_TRACT, for which the “AUC of viability dose-response curve” value turned out to be 0.455.

For MFE296_ENDOMETRIUM, the “AUC of viability dose-response curve” value was determined as 0.514.

With JHH4_LIVER, the “AUC of viability dose-response curve” value came to 0.997.

Turning to SISO_CERVIX, the “AUC of viability dose-response curve” value worked out at 0.987.

Turning to CHLA15_AUTONOMIC_GANGLIA, the “AUC of viability dose-response curve” value was 0.551.

As for MG63_BONE, the “AUC of viability dose-response curve” value turned out to be 1.

Consider WM983B_SKIN, for which the “AUC of viability dose-response curve” value was found to be 0.774.

With HCC1359_LUNG, the “AUC of viability dose-response curve” value is 1.

With TE10_OESOPHAGUS, the “AUC of viability dose-response curve” value turned out to be 0.501.

For KP4_PANCREAS, the “AUC of viability dose-response curve” value was found to be 0.625.

In the case of SKMEL24_SKIN, the “AUC of viability dose-response curve” value was 1.

As for BICR56_UPPER_AERODIGESTIVE_TRACT, the “AUC of viability dose-response curve” value was determined as 0.862.

On to “SUPB15_HAEMATOPOIETIC_AND_LYMPHOID_TISSUE”, for which the “AUC of viability dose-response curve” value came out at 0.185.

On to TE1_OESOPHAGUS, for which the “AUC of viability dose-response curve” value was 0.884.

VMCUB1_URINARY_TRACT: the “AUC of viability dose-response curve” value was determined as 0.443.

Regarding SW954_CERVIX, the “AUC of viability dose-response curve” value turned out to be 0.702.

Turning to “P12ICHIKAWA_HAEMATOPOIETIC_AND_LYMPHOID_TISSUE”, the “AUC of viability dose-response curve” value came to 0.739.

With KON_UPPER_AERODIGESTIVE_TRACT, the “AUC of viability dose-response curve” value amounted to 0.7.

As to NCIH460_LUNG, the “AUC of viability dose-response curve” value was 1.

Regarding TASK1_CENTRAL_NERVOUS_SYSTEM, the “AUC of viability dose-response curve” value was 0.342.

As for C33A_CERVIX, the “AUC of viability dose-response curve” value is 1.

As to RERFGC1B_STOMACH, the “AUC of viability dose-response curve” value is 0.993.

Regarding TUHR4TKB_KIDNEY, the “AUC of viability dose-response curve” value turned out to be 1.

As for NCIH23_LUNG, the “AUC of viability dose-response curve” value was found to be 0.771.

RMSYM_SOFT_TISSUE: the “AUC of viability dose-response curve” value amounted to 0.394.

With BT16_SOFT_TISSUE, the “AUC of viability dose-response curve” value was determined as 1.

On to JIMT1_BREAST, for which the “AUC of viability dose-response curve” value stood at 1.

As for UMUC1_URINARY_TRACT, the “AUC of viability dose-response curve” value stood at 0.703.

On to L82_HAEMATOPOIETIC_AND_LYMPHOID_TISSUE, for which the “AUC of viability dose-response curve” value is 0.44.
